Laboratory results as given in patent US9868763B2, “Modulators of protease activated receptors” (The University of Queensland, priority 2011, dated 2018).
“Also recorded” adds a separate entry of the source.

Assays:
[1] = system: λ-carrageenan-induced paw oedema; test: λ-carrageenan-induced paw oedema; format: in vivo, Wistar rat; details: 10 mg/kg p.o., 1% λ-carrageenan intraplantar
Method: Methods were based on literature (Kelso E B et al., J Pharmacol Exp Ther 2006, 316(3):1017-24; Kawabata A et al., Peptides 2001, 23(6):1181-3). Male Wistar rats (n=4 per group) were given 10 mg/kg PAR2 antagonist 52 (p.o. via gavage in olive oil, 500 μL). Control animals received only olive oil. Thirty minutes later, λ-carrageenan was administered into the right hind paw pad (1% w/v in saline, 100 μL, i.pl, Left paw saline control). Paw thickness and width were measured at 1-6, 8 and 24 h (as above) and swelling expressed in area (mm^2) and plotted as % change from baseline of each individual paw.

[2] = system: β-tryptase-induced paw oedema; test: β-tryptase-induced paw oedema; format: in vivo, Wistar rat
Method: (§1) Based on previous methods (Kelso E B et al., J Pharmacol Exp Ther 2006, 316(3):1017-24; Suen J Y et al., Br J Pharmacol 2011, doi: 10.1111/j.1476-5381.2011.01610.x.), PAR2 antagonist 52 (10 mg/kg s.c.; n=4), ENMD-1068 (100 mg/kg s.c.; n=4) or vehicle control (DMSO s.c.; n=2) were administered to male Wistar rats. Baseline paw thickness and width were measured using digital calipers (World Precision Instruments, USA) expressed in area (mm^2; thickness×width). Fifteen minutes later, 2Furoyl-LIGLRO-NH2 (350 μg/paw in 100 μL saline) was injected into of the right hind paw pad (intraplantar, i.pl.). The left hind paw acted as a control, receiving saline only. In a separate experiment, vehicle (500 μL olive oil) versus PAR2 antagonist 52 (10 mg/kg p.o. in 500 μL olive oil) only were administered orally to two groups of rats (4 per group). Two hours later, β-tryptase (human recombinant lung, 20 μg in 100 μL saline) was injected into the right hind paw pad (vehicle in left for control) of all animals in each group. In all experiments, paw swelling was measured and expressed in area (mm^2; thickness×width) and plotted as % change from baseline of each individual paw.

[3] = system: 2furoyl-LIGRLO-NH2-induced paw oedema; test: PAR2 agonist-induced paw oedema; format: in vivo, Wistar rat
Method: The methods used are based on those previously described (Kelso, E. B., et al. Arthritis Rheum 2007, 56, 765-71; Kelso, E. B., et al. J Pharmacol Exp Ther 2006, 316, 1017-24; and Vergnolle, N. J Immunol 1999, 163, 5064-9). Male Wistar rats (n=3 per group) are used. Briefly, rats are given either 5 or 10 mg/kg of a compound of the present invention (p.o. via gavage in olive oil, approx. 500 μL, weight adjusted). Control animals receive only olive oil (500 μL p.o.). Two hours later, the PAR2 agonist 2-furoyl-LIGRLO (350 μg/paw in saline, 100 μL) is injected into the plantar surface (i.pl.) of the right paw pad using a 30 G needle. The left paw acts as a control, receiving saline only. Paw thickness and width are measured after 30 minutes and hourly using digital calipers (World Precision Instruments, USA) and swelling is calculated in area (mm^2; thickness multiplied by width) and expressed as a percentage change from baseline of each individual paw.
as §1

[4] = system: TNBS-induced chronic colitis; test: TNBS-induced chronic colitis model; format: in vivo, rat; details: sulfasalazine 100 mg/kg/day p.o.
Method: On day 0, rats were weighed, given respective treatments of either sulfasalazine (100 mg/kg in olive oil p.o.), compound 52 (10 mg/kg in olive oil), or vehicle (500 l olive oil p.o.), and fasted for 24 h with water supplied ad libitum. The next day (day 1), rats were weighed, dosed with respective compound, and anesthetized with isofluorane. A polyethylene catheter was inserted intrarectally (8 cm). Control and drug-treated animals received an intracolonic dose of TNBS (80 mg/kg in saline and 250 l, 50% ethanol in water) (Fiorucci at al., 2001). Sham animals received vehicle only, with TNBS replaced by equivolume water. Rats were maintained in an inclined position (40°) for 30 min, then allowed to recover with food and water supplied. Rats were dosed daily with the respective compound, weighed, and scored for general health and disease progression. All rats were sacrificed on day 8 of experimentation unless they were sacrificed earlier. Disease progression and post-mortem colonic histopathology was scored by the following methods. PAR2 and tryptase co-localization were investigated by using immunohistochemistry.
DAI for both acute and chronic models was assessed and scored by an expert blinded to treatments. Scores incorporated mobility, gastrointestinal pathology, discomfort, and generalized sickness behaviour criteria (each scored 0-3). Any animal that reached stage 3 in any criteria was euthanized by CO2 inhalation and recorded as a disease-related mortality. Scores were summed and expressed as total disease score (maximum 12). DAI was measured at endpoint only (10 h) in the acute study and daily in the chronic TNBS study.
Colons were dissected post-mortem and given a macroscopic disease score based on that described previously (Bobin-Dubigeon et al., 2001) with some minor alterations (maximal score 14). The entire colon length was removed between the ileocolic and colorectal junction. Length and maximal distension width were measured. Sections of affected colon were taken for biochemical analysis, histology, and wet/dry weight.

CC[C@H](C)[C@@H](NC(=O)[C@H](CC1CCCCC1)NC(=O)c1ccno1)C(=O)N1CCC2(C=Cc3ccccc32)CC1 [Compound 52]
λ-carrageenan-induced oedema reduced to [1]: 50% | paw oedema induced by β-tryptase ([2]; 10 mg/kg p.o. in olive oil, β-tryptase 20 μg/paw 2 h later): reduced paw oedema; also recorded: prevented the oedema; also recorded: strongly inhibited | β-tryptase-induced mast cell degranulation in the extrasynovium ([2]; 10 mg/kg pretreatment): ameliorated; also recorded: prevented | paw oedema induced by other PAR2 agonists, e.g. trypsin, SLIGRL-NH2 and GB110 ([3]; recently found): inhibit paw oedema | paw oedema induced by 2furoyl-LIGRLO-NH2 ([3]; s.c., 52 10 mg/kg, ENMD-1068 100 mg/kg, agonist 350 μg/paw): reduced the paw oedema; also recorded: strongly reduce the paw oedema | chronic colitis: mortality and pathology (colon obstruction, ulceration, wall thickness, myeloperoxidase release) ([4]; 52 10 mg/kg/day p.o.): ameliorated; also recorded: more effectively than the clinically used drug sulfasalazine | TNBS-mediated mortality ([4]; 52 10 mg/kg/day): 8.3% | DAI compared with TNBS-controls ([4]; from day 2 onward, 52 10 mg/kg/day): marked improvements in DAI; also recorded: almost complete recovery
